Results taken from US20250057832A1, “USE OF A CLASS OF 1,4-DIHYDRO-NAPHTHYRIDINE DERIVATIVES IN TREATMENT OF TUMORS” (NEURODAWN PHARMACEUTICAL CO., LTD., priority 2021, published 2025).

Tests used:
T98G cells [1] = assay: Vacuolation induction in T98G cells (Example 1); assay type: cell-based, human; conditions: for Vacuolation rate (%): 6 hours, mean±SD; for Induction of vacuolation in T98 cells: FIG. 1 and Table 1
Protocol: T98G cells were stably passaged twice. When the cell density reached more than 85%, the cells were digested with 0.05% trypsin-EDTA for 3 minutes, resuspended with the culture medium, and plated in a 12-well plate at a certain density, with each well system being 1 mL. The cells were cultured for 24 hours, and added with the compound solution prepared above to each well according to the grouping, so that the concentrations of the compounds in the culture system were respectively 5 μM, 10 μM, 20 μM, 40 μM, and 60 μM. An equal volume of DMSO was added as a control well.
After 6 hours of drug treatment, the plates were observed under a microscope with a 20× objective lens, and five fields of view were randomly selected for each well to take photos and record. If in the observed field of view, bright vacuoles with clear border appeared in the cell, and at least one of the following conditions was met: 1) a cell contained at least 1 vacuole with a diameter greater than 3 μm; 2) a cell contained 3 or more vacuoles with a diameter within the range of 0.5-3 μm, the cell was considered to be methuosis-positive cells.
Among them, CELL positive: the number of methuosis-positive cells; CELL normal: the number of cells with normal morphology

T98G cells [2] = assay: Cell proliferation inhibition assay, T98G, CellCounting-Lite 2.0 (Example 1); assay type: cell-based, human; conditions: for IC50: Homo sapiens, T98G, 72 hours of drug treatment
Protocol: T98G cells were stably passaged twice. When the cell density reached above 85%, the cells were digested with 0.05% trypsin-EDTA for 3 minutes, resuspended, plated in a 96-well plate at the corresponding density, and cultured for 24 hours. The cells were treated with drugs at final concentrations of the culture system of 0.41 μM, 1.23 μM, 3.7 μM, 11.1 μM, 33.3 μM, and 100 μM, respectively. After 72 hours of drug treatment, cell viability was determined using CellCounting-Lite™ 2.0 kit. The plate was added with reagents at 100 µL/well according to the CellCounting-Lite™ 2.0 kit instructions, and shaken for 10 minutes. The luminescence value (LUM) as read on a multi-function plate reader, and the relative viability of the cells was calculated.
Relative viability of tumor cells V (%)=(LUM-LUMbackground)/(LUMnormal control−LUMbackground)×100%. LUMbackground was the background reading of the complete culture medium well added with the detection reagent. The half inhibitory concentration (IC50) was calculated using GraphPad Prism 8.0.1 statistical software.

[3] = tested on: U87MG-Luc glioblastoma cell in situ transplantation tumor; assay: S2 combined with TMZ in U87MG-Luc glioblastoma in situ transplantation tumor model in nude mice (Example 5); conditions: TMZ 3 mg/kg
Protocol: Before the transplantation, the U87MG-Luc cells were digested with 0.05%-trypsin-EDTA, resuspended with pre-cooled PBS to 4×10^7 cells/mL, and transferred to ice for later use. The nude mice were anesthetized with isoflurane gas, and then fixed on a stereotaxic machine in a prone position. The scalp of the nude mouse was disinfected with iodophor, and incised sagittally with a scalpel. The incision was cleaned with iodophor. The skull was exposed, and drilled with a skull drill extending 1.0 mm in front of the bregma and deviating the right side 2.0 mm. 5 μL of cell suspension (2×10^5 cells) was manually injected with a 10 μL flat-head microsyringe, with inserting the needle to a depth of 3.5 mm, withdrawing the needle 0.5 mm, and injecting for about 10 minutes. […]
On days 7, 14, and 21 after the transplantation, 200 μL of 15 mg/mL D-luciferin potassium salt solution, which was filtered and sterilized through a 0.22 μm filter, was injected intraperitoneally. […] Luorescence intensity was analyzed using Living Image software to obtain fluorescence intensity [p/s], which reflected the size of tumor tissue in the brain of experimental animals.
The survival conditions of experimental animals were monitored, and the animals' death dates were recorded timely.
Quantitative data are expressed as mean±standard error. […]

[4] = tested on: human glioma cell line T98G; conditions: single drug, maximum drug concentration of 20 M, 6 hours
Protocol: T98G cells were stably passaged twice. […] The cells were cultured for 24 hours, and added with the compound solution prepared above to each well according to the grouping, such that the compound concentrations in the culture system were 0.1 M, 1 M, 5 μM, and 20 M, respectively. An equal volume of DMSO was added as a control well.
If bright vacuoles with clear border appeared in the observed field of view, and at least one of the following conditions was met: 1) a cell contained at least one vacuole with a diameter greater than 3 μm; 2) a cell contained 3 or more vacuoles with a diameter within the range of 0.5-3 μm; the cell was considered as a methuosis-positive cell.

Compound	Vacuolation rate (%) (T98G cells [1]; 5 μM)	Vacuolation rate (%) (T98G cells [1]; 10 μM)	Vacuolation rate (%) (T98G cells [1]; 20 μM)	Induction of vacuolation in T98 cells (T98G cells [1])	IC50 (T98G cells [2]) [µM]	Rank of vacuolation-inducing activity among the derivatives (T98G cells [1])	Vacuolation rate (%) (T98G cells [1]; 40 μM)	Proliferation inhibitory activity on T98G (in words) (T98G cells [2]; 72 hours)	Median survival period ([3]; vehicle 30) [days]	Overall survival period ([3]; vehicle 33) [days]	Induction of vacuolated cell phenotype [4]
CCOC(=O)C1=C(C)Nc2nc3c(c(N)c2[C@@H]1c1ccccc1Cl)CC(C)(C)CC3 [(+)-S2]	1.3 ± 1.6	10.0 ± 4.2	69.3 ± 6.9	can induce vacuolation	5.3						
CCOC(=O)C1=C(C)Nc2nc3c(c(N)c2[C@H]1c1ccccc1Cl)CC(C)(C)CC3 [(−)-S2]	1.2 ± 1.7	21.9 ± 9.0	96.47 ± 2.4	can induce vacuolation	9.8						
CCOC(=O)C1=C(C)Nc2nc3c(c(N)c2C1c1ccccc1)CCCC3 (stereo not drawn) [Compound S1]	0.0	0.3 ± 0.6	2.23 ± 0.5	can induce vacuolation	47.8	weakest vacuolation-inducing activity	10.0 ± 5.6	weak			
C=CCOC(=O)C1=C(C)Nc2nc3c(c(N)c2C1c1cccc(F)c1)CC(C)(C)CC3 (stereo not drawn) [Compound S3]	1.1 ± 1.5	5.34 ± 1.2	9.04 ± 3.8	can induce vacuolation	7		57.4 ± 13.9				
C#CCOC(=O)C1=C(C)Nc2nc3c(c(N)c2C1c1cccc(F)c1)CC(C)(C)CC3 (stereo not drawn) [Compound S4]	0.6 ± 1.4	5.0 ± 1.3	10.43 ± 1.0	can induce vacuolation	12.7		76.9 ± 12.1				
COCCOC(=O)C1=C(C)Nc2nc3c(c(N)c2C1c1ccccc1Cl)CC(C)(C)CC3 (stereo not drawn) [Compound S5]	1.4 ± 1.4	10.7 ± 0.90	35.1 ± 1.3	can induce vacuolation	4.5						
CC1=C(C(=O)OC(C)C)C(c2cccc(F)c2)c2c(nc3c(c2N)CC(C)(C)CC3)N1 (stereo not drawn) [Compound S6]	0.00	10.5 ± 1.6	15.3 ± 1.3	can induce vacuolation	20.5		52.3 ± 2.5				
Cn1nnc2c(C(N)=O)ncn2c1=O [TMZ, Temozolomide]									33.5	35	
COc1ccc([C@@H]2Sc3ccccc3N(CCN(C)C)C(=O)[C@@H]2OC(C)=O)cc1 [diltiazem]											None of calcium channel inhibitors nifedipine, verapamil, diltiazem, and flunarizine with a maximum drug concentration of 20 M could induce a vacuolated cell phenotype
Fc1ccc(C(c2ccc(F)cc2)N2CCN(C/C=C/c3ccccc3)CC2)cc1 [flunarizine]											None of calcium channel inhibitors nifedipine, verapamil, diltiazem, and flunarizine with a maximum drug concentration of 20 M could induce a vacuolated cell phenotype
